Reference: article PMC7026418, “The kinase polypharmacology landscape of clinical PARP inhibitors” (Scientific Reports, 2020)
Where two headings read alike, the source gives them in different places. One block for each compound: values may come before it.

Columns and labels:
Assay in all cases: biochemical
Parameters in all cases: DiscoveRx KINOMEscan active site-directed competition binding; percent of control kinase bound to immobilised ligand
BTK = BTK (Homo sapiens, UniProt Q06187)
EPHA8 = target: T1, EPHA8 (Homo sapiens, UniProt P29322)
T1 sequence (P29322 1-1005): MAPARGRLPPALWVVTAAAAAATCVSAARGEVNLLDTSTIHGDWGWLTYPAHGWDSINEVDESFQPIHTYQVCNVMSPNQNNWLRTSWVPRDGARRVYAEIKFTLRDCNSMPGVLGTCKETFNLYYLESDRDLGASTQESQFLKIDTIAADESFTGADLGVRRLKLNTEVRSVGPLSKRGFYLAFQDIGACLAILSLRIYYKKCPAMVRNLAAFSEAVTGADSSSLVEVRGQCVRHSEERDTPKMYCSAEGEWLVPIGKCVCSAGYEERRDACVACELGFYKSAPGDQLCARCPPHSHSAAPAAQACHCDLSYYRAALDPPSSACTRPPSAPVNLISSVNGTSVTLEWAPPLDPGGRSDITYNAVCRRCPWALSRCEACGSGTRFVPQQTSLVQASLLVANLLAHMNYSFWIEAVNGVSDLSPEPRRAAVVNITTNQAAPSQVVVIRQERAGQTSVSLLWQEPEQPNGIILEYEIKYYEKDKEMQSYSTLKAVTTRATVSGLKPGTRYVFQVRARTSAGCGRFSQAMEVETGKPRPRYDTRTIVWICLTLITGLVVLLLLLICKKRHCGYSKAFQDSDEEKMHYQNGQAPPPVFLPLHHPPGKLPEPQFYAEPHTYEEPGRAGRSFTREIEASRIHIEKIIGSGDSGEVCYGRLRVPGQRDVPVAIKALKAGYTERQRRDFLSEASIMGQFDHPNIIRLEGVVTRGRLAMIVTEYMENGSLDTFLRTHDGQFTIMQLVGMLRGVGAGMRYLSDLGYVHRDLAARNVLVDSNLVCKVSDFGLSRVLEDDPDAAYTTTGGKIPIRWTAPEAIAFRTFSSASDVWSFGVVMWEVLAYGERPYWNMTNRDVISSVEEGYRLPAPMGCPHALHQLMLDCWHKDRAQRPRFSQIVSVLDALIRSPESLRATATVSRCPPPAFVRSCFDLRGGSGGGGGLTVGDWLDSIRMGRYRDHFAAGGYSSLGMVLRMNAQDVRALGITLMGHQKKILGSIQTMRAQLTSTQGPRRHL

NEK4 = NEK4 (Homo sapiens, UniProt P51957)
Chain of NEK4 (P51957 whole entry): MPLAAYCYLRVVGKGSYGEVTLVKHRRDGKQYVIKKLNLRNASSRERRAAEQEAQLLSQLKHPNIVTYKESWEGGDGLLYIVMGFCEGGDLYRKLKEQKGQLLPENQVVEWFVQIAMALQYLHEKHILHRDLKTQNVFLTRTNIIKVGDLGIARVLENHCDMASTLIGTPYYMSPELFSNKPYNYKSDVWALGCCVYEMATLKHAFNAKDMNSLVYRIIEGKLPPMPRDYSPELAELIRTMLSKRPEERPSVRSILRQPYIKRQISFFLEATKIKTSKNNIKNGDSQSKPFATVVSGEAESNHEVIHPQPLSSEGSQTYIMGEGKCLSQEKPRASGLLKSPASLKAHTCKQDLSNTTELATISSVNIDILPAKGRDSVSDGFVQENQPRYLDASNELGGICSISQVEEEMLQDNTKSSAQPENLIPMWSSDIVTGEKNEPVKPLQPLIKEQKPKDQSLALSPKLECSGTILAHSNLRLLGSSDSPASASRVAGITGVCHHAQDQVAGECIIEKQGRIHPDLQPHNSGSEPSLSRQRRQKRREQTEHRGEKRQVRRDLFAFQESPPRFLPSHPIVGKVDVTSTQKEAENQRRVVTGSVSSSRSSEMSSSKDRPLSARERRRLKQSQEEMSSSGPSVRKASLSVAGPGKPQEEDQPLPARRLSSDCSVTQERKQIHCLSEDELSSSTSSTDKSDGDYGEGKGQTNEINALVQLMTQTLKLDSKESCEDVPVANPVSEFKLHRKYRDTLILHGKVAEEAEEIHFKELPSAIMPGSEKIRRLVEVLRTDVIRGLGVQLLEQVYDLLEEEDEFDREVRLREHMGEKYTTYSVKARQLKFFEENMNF

EIF2AK1 = EIF2AK1 (Homo sapiens, UniProt Q9BQI3)
Chain of EIF2AK1 (Q9BQI3 whole entry): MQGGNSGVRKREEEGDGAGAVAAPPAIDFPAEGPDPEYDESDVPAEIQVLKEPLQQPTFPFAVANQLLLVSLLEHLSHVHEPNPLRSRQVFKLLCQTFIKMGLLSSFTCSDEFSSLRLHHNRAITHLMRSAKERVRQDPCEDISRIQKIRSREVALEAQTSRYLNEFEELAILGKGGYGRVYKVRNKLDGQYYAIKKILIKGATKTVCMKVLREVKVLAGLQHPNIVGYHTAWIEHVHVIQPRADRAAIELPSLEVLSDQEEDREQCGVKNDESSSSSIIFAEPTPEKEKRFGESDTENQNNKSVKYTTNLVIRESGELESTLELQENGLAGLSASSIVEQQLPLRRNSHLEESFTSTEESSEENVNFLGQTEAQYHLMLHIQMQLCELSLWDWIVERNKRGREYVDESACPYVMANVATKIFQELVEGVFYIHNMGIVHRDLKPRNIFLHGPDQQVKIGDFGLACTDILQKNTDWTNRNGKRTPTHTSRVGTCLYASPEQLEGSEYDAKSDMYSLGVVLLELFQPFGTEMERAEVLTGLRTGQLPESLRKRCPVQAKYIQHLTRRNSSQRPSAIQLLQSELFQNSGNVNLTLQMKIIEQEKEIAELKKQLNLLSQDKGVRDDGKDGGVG

CDKL5 = target: T2, CDKL5 (Homo sapiens, UniProt O76039)
T2 sequence (O76039 1-960): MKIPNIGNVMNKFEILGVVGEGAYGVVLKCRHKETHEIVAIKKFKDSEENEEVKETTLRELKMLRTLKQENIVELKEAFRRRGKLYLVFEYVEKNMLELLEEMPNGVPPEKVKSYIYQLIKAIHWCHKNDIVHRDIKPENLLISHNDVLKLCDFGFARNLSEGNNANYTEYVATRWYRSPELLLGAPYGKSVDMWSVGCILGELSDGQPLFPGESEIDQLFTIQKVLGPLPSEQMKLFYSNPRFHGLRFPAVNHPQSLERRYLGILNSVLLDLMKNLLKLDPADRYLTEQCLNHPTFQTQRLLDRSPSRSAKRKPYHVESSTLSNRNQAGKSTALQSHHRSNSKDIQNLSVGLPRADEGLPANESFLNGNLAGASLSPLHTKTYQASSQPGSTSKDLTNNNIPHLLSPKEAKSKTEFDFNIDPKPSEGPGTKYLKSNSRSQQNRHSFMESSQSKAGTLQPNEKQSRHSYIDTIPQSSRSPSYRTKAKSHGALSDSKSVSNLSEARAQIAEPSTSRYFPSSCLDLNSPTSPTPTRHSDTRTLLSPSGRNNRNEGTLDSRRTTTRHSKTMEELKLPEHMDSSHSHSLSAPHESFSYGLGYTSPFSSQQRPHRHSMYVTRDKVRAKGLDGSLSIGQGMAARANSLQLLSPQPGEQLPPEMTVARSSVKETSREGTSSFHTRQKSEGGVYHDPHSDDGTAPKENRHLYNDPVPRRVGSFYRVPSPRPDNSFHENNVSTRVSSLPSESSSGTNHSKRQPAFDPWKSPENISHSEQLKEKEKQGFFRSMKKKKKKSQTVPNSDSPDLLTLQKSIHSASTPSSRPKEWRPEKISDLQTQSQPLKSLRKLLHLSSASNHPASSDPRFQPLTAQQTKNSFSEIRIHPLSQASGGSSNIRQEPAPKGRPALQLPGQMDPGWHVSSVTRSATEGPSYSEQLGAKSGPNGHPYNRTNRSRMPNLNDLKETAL

ABL2 = ABL2 (Homo sapiens, UniProt P42684)
Chain of ABL2 (P42684 whole entry): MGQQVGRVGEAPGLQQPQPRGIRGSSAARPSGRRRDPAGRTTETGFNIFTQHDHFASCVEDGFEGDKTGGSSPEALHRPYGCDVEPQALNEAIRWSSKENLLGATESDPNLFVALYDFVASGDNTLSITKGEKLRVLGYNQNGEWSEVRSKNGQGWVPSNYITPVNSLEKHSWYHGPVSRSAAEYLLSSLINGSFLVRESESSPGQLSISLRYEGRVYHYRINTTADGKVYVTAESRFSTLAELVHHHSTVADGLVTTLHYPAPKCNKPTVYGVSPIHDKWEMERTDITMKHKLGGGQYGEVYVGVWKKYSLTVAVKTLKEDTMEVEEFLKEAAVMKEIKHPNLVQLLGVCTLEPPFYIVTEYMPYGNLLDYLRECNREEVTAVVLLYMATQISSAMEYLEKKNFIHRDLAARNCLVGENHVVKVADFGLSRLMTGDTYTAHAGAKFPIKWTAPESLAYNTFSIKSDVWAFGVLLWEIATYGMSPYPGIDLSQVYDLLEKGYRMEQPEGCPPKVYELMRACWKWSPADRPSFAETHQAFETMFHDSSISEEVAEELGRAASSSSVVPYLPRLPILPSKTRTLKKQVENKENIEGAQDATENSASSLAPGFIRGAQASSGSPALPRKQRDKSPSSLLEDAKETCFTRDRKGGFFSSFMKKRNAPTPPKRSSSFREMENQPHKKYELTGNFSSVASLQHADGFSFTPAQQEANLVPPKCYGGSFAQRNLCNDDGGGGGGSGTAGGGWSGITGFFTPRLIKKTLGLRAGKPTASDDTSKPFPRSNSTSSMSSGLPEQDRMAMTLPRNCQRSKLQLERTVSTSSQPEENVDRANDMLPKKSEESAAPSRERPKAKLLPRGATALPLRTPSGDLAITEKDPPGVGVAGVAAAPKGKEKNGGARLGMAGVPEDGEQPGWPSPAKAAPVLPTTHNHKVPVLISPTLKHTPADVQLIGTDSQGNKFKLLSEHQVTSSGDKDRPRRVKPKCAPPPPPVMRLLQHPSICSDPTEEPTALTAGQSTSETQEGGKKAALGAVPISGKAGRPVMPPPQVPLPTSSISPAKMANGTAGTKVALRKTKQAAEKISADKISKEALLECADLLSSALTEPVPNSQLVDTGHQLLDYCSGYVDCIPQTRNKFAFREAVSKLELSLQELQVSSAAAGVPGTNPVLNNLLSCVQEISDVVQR

ERK4 = target: T3, ERK4 (Homo sapiens, UniProt P31152)
T3 construct: gene MAPK4
T3 sequence (P31152 whole entry): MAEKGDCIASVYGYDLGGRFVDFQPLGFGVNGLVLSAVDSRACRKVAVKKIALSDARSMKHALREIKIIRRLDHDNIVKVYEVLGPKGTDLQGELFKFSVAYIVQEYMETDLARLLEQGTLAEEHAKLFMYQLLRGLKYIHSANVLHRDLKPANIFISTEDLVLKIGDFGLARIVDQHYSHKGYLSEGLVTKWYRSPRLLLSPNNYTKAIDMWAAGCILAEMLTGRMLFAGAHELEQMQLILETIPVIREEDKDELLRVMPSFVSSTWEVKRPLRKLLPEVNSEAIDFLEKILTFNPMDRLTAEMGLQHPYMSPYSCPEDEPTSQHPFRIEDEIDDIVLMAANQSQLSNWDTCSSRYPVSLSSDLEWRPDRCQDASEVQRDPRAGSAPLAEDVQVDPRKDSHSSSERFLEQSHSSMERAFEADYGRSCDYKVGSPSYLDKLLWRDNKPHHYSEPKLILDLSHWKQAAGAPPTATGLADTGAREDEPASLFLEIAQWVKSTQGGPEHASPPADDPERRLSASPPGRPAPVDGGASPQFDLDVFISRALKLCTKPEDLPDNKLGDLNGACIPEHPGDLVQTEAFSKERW

[1] = read-out: Niraparib (MK-4827) / %Ctrl @ 10000nM
[2] = read-out: Rucaparib / %Ctrl @ 10000nM, binding competition, % of control
[3] = read-out: Olaparib / %Ctrl @ 10000nM
[4] = read-out: Talazoparib (BMN 673) / %Ctrl @ 10000nM

Chain of BTK (Q06187 whole entry): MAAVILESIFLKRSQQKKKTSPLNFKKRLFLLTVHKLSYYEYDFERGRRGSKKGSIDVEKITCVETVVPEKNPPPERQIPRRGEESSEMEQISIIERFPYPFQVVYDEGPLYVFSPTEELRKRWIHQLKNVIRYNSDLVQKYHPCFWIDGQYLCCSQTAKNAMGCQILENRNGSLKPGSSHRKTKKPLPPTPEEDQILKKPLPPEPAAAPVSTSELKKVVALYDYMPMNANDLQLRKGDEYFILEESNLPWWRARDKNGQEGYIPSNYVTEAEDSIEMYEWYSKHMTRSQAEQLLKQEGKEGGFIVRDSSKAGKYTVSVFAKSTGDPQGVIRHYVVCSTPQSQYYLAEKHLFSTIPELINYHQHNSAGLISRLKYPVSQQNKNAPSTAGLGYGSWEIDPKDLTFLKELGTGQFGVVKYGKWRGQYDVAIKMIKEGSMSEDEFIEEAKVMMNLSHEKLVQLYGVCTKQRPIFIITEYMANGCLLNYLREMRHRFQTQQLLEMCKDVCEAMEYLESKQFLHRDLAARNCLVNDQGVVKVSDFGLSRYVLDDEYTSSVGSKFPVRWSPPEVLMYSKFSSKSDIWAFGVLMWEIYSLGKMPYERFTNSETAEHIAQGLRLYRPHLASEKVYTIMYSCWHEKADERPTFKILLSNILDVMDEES

Compound: NC(=O)c1cccc2cn(-c3ccc([C@@H]4CCCNC4)cc3)nc12 [Niraparib]
percent of control binding at 10 µM (BTK; [1]): 95%
percent of control binding at 10 µM (EPHA8; [1]): 80%
percent of control binding at 10 µM (NEK4; [1]): 82%
percent of control binding at 10 µM (EIF2AK1; [1]): 93%
percent of control binding at 10 µM (CDKL5; [1]): 86%
percent of control binding at 10 µM (ABL2; [1]): 85%
percent of control binding at 10 µM (ERK4; [1]): 98%

percent of control binding at 10 µM (BTK; [2]): 83%
percent of control binding at 10 µM (EPHA8; [2]): 100%
percent of control binding at 10 µM (NEK4; [2]): 82%
percent of control binding at 10 µM (EIF2AK1; [2]): 72%
percent of control binding at 10 µM (CDKL5; [2]): 30%
percent of control binding at 10 µM (ABL2; [2]): 100%
percent of control binding at 10 µM (ERK4; [2]): 97%
Compound: CNCc1ccc(-c2[nH]c3cc(F)cc4c3c2CCNC4=O)cc1 [Rucaparib]

percent of control binding at 10 µM (BTK; [3]): 86%
percent of control binding at 10 µM (EPHA8; [3]): 98%
percent of control binding at 10 µM (NEK4; [3]): 80%
percent of control binding at 10 µM (EIF2AK1; [3]): 83%
percent of control binding at 10 µM (CDKL5; [3]): 98%
percent of control binding at 10 µM (ABL2; [3]): 100%
percent of control binding at 10 µM (ERK4; [3]): 100%
Compound: O=C(c1cc(Cc2n[nH]c(=O)c3ccccc23)ccc1F)N1CCN(C(=O)C2CC2)CC1 [Olaparib]

percent of control binding at 10 µM (BTK; [4]): 100%
percent of control binding at 10 µM (EPHA8; [4]): 96%
percent of control binding at 10 µM (NEK4; [4]): 100%
percent of control binding at 10 µM (EIF2AK1; [4]): 100%
percent of control binding at 10 µM (CDKL5; [4]): 100%
percent of control binding at 10 µM (ABL2; [4]): 93%
percent of control binding at 10 µM (ERK4; [4]): 100%
Compound: Cn1ncnc1[C@H]1c2n[nH]c(=O)c3cc(F)cc(c23)N[C@@H]1c1ccc(F)cc1 [Talazoparib]
